These results are taken from patent publication US5733924A, “DC 107 derivatives and treatment methods” (Kyowa Hakko Kogyo Co., Ltd., priority 1995, dated 1998).

Values after ≈ are worked out from the molar mass of the structure shown. Like-named read-outs stand apart in the source and are kept apart here.

The test system of assay [1] is Enterococcus faecium ATCC 10541. Nature of the assay: Antibacterial activity, agar dilution method (MIC). The assay is classed as cell-based. The text has this:
(§1) The antibacterial activity as determined by the agar dilution method using a medium prepared by dissolving 3 g of Bacto-Tryptone (a product of Difco Laboratories), 3 g of a meat extract, 1 g of an yeast extract, 1 g of glucose and 16 g of agar in one liter of water (pH 7).
EF: Enterococcus faecium ATCC 10541
For orientation: Agar dilution tests growth on a series of plates holding different concentrations.

Assay [2] relates to Bacillus subtilis No. 10707. Nature of the assay: Antibacterial activity, agar dilution method (MIC). It counts as cell-based.
Text: as §1
BS: Bacillus subtilis No. 10707

Assay [3] concerns Staphylococcus aureus ATCC 6538P. Nature of the assay: Antibacterial activity, agar dilution method (MIC). The assay is classed as cell-based. The settings on record: ATCC6538P.
Text: as §1
SA: Staphylococcus aureus ATCC 6538P

The subject of assay [4] is Klebsiella pneumoniae ATCC 10031. Nature of the assay: Antibacterial activity, agar dilution method (MIC). It counts as cell-based.
Text: as §1
KP: Klebsiella pneumoniae ATCC 10031

A further assay deals with P388 Leukemia. Nature of the assay: Antitumor activity against P388 leukemia in mice (increased life span). It counts as in vivo, CDF1 mice. The settings on record: Mus musculus, P388, ip, 720 h. On the procedure:
Ascites were collected from the abdominal cavity of P388 ascites tumor-bearing cancer mice (DBA/2) on the 7th day after transplantation. A number of P388 cells in the ascites was counted, and a tumor cell floating liquid of 5×10^6 cells/ml was prepared using a physiological saline solution. Then, 0.2 ml of the solution containing 1×10^6 cells was transplanted into the abdominal cavity of CDF1 mice having a body weight of from 20 to 25 g.
The effect of the test compound was determined in terms of the ratio of average survival days of the group administered with the test compound to average survival days of the control group (non-medicated group) (i.e., an increased life span, ILS%).

Where [5] appears, read: ATCC10541, EF: Enterococcus faecium ATCC 10541, pH 7, read-out: MIC (minimum growth inhibitory concentration).
Where [6] appears, read: BS: Bacillus subtilis No. 10707, pH 7, read-out: MIC (minimum growth inhibitory concentration).
Where [7] appears, read: SA: Staphylococcus aureus ATCC 6538P, agar dilution, pH 7, read-out: MIC (minimum growth inhibitory concentration).
[8] abbreviates: ATCC10031, KP: Klebsiella pneumoniae ATCC 10031, agar dilution, pH 7, read-out: MIC (minimum growth inhibitory concentration).
The mark [9] stands for this setting: single i.p. 24 hours after transplantation, CDF1 mice, 30 days observation.

Consider `CCCCCCCC(=O)OCSC(=O)C(C)(O)C12CC/C(C)=C/C(O)C(=O)/C=C/C=C\c3csc(n3)C(C)N(C(=O)C1)[S+]2[O-]` (stereo not drawn) [Compound 84], for which the MIC came to 0.39 µg/mL (≈ 0.585 µM) in assay [1] (setting [5]), 0.049 µg/mL (≈ 0.0735 µM) in assay [2] (setting [6]), 0.39 µg/mL (≈ 0.585 µM) in assay [3] (setting [7]) and 0.098 µg/mL (≈ 0.147 µM) in assay [4] (setting [8]).
Regarding `COC(C)(C)OC1/C=C(\C)CCC2(C(C)(O)C(=O)SCc3oc(=O)oc3C)CC(=O)N(C(C)c3nc(cs3)/C=C\C=C\C1=O)[S+]2[O-]` (stereo not drawn) [Compound 121], the MIC worked out at 0.78 µg/mL (≈ 1.12 µM) in assay [1] (setting [5]), 0.26 µg/mL (≈ 0.374 µM) in assay [2] (setting [6]), 0.78 µg/mL (≈ 1.12 µM) in assay [3] (setting [7]) and 0.39 µg/mL (≈ 0.561 µM) in assay [4] (setting [8]).
With `COC1(OC2C=C(C)CCC3(C(C)(O)C(=O)SCc4oc(=O)oc4C)CC(=O)N(C(C)c4nc(cs4)C=CC=CC2=O)[S+]3[O-])CCCCC1` (stereo not drawn) [Compound 126], the MIC in assay [1] (setting [5]) worked out at 1 µg/mL (≈ 1.36 µM); in assay [2] (setting [6]), 0.033 µg/mL (≈ 0.0449 µM); in assay [3] (setting [7]) it was 1 µg/mL (≈ 1.36 µM); in assay [4] (setting [8]), 4.2 µg/mL (≈ 5.71 µM).
As usually defined, the ILS is the gain in survival time of treated over control animals, in per cent. For the compound `COC1(OC2C=C(C)CCC3(C(C)(O)C(=O)SCc4oc(=O)oc4C)CC(=O)N(C(C)c4nc(cs4)C=CC=CC2=O)[S+]3[O-])CCSCC1` (stereo not drawn) [Compound 127], the MIC amounted to 0.65 µg/mL (≈ 0.863 µM) in assay [1] (setting [5]), 0.041 µg/mL (≈ 0.0545 µM) in assay [2] (setting [6]), 0.65 µg/mL (≈ 0.863 µM) in assay [3] (setting [7]) and 2.6 µg/mL (≈ 3.45 µM) in assay [4] (setting [8]). In the assay with P388 Leukemia (setting [9]), this compound gave an ILS at 16 mg/kg of 52%.
For `CC1=CC(OC(=O)CNC(=O)CNC(=O)c2ccccc2)C(=O)C=CC=Cc2csc(n2)C(C)N2C(=O)CC(C(C)(O)C(=O)SCc3oc(=O)oc3C)(CC1)[S+]2[O-]` (stereo not drawn) [Compound 167], the MIC in assay [1] (setting [5]), in assay [2] (setting [6]), in assay [3] (setting [7]) and in assay [4] (setting [8]) was 2.1 µg/mL (≈ 2.5 µM) throughout. This compound also gave an ILS at 16 mg/kg in the assay on P388 Leukemia (setting [9]) of 90%.
As for `CC1=CC(OC(=O)CNC(=O)CCNC(=O)OCc2ccccc2)C(=O)C=CC=Cc2csc(n2)C(C)N2C(=O)CC(C(C)(O)C(=O)SCc3oc(=O)oc3C)(CC1)[S+]2[O-]` (stereo not drawn) [Compound 169], the ILS at 16 mg/kg in the assay on P388 Leukemia (setting [9]) is 91%.
The same measure, in the same setting: then `CC1=CC(OC(=O)CNC(=O)CCCNC(=O)OCc2ccccc2)C(=O)C=CC=Cc2csc(n2)C(C)N2C(=O)CC(C(C)(O)C(=O)SCc3oc(=O)oc3C)(CC1)[S+]2[O-]` (stereo not drawn) [Compound 171], with 63%.
As to `CC1=CC(OC(=O)CNC(=O)CN(C)C(=O)OCc2ccccc2)C(=O)C=CC=Cc2csc(n2)C(C)N2C(=O)CC(C(C)(O)C(=O)SCc3oc(=O)oc3C)(CC1)[S+]2[O-]` (stereo not drawn) [Compound 172], the MIC in assay [1] (Enterococcus faecium, ATCC10541, pH 7, read-out: MIC (minimum growth inhibitory concentration), EF: Enterococcus faecium ATCC 10541) was determined as 1 µg/mL (≈ 1.13 µM); in assay [2] (Bacillus subtilis, NO.10707, pH 7, read-out: MIC (minimum growth inhibitory concentration), BS: Bacillus subtilis No. 10707) it was 1 µg/mL (≈ 1.13 µM); in assay [3] (Staphylococcus aureus, pH 7, read-out: MIC (minimum growth inhibitory concentration)) it was 2.1 µg/mL (≈ 2.37 µM); in assay [4] (Klebsiella pneumoniae, ATCC10031, pH 7, read-out: MIC (minimum growth inhibitory concentration)), 1 µg/mL (≈ 1.13 µM). In addition, in the assay on P388 Leukemia (read-out: ILS (increased life span)), the ILS at 4 mg/kg is 65%.
Consider `CC1=CC(OC(=O)CNC(=O)C(CC(C)C)NC(=O)OCc2ccccc2)C(=O)C=CC=Cc2csc(n2)C(C)N2C(=O)CC(C(C)(O)C(=O)SCc3oc(=O)oc3C)(CC1)[S+]2[O-]` (stereo not drawn) [Compound 173], for which, in the assay on P388 Leukemia (8.0 mg/kg, single i.p. 24 hours after transplantation, CDF1 mice, 30 days observation, read-out: ILS (increased life span)), the ILS at 8 mg/kg came to 64%.
Consider `CC1=CC(OC(=O)CN(C)C(=O)CCNC(=O)OCc2ccccc2)C(=O)C=CC=Cc2csc(n2)C(C)N2C(=O)CC(C(C)(O)C(=O)SCc3oc(=O)oc3C)(CC1)[S+]2[O-]` (stereo not drawn) [Compound 175], for which the increase in lifespan (ILS) at 16 mg/kg in the assay on P388 Leukemia (setting [9]) is 65%.
Compound `CC1=CC(OC(=O)CCNC(=O)CNC(=O)OCc2ccccc2)C(=O)C=CC=Cc2csc(n2)C(C)N2C(=O)CC(C(C)(O)C(=O)SCc3oc(=O)oc3C)(CC1)[S+]2[O-]` (stereo not drawn) [Compound 176] yielded an ILS at 16 mg/kg in the assay on P388 Leukemia (setting [9]) of 75%.
`CC1=CC(OC(=O)CCNC(=O)CCNC(=O)OCc2ccccc2)C(=O)C=CC=Cc2csc(n2)C(C)N2C(=O)CC(C(C)(O)C(=O)SCc3oc(=O)oc3C)(CC1)[S+]2[O-]` (stereo not drawn) [Compound 177] had an ILS at 32 mg/kg in the assay with P388 Leukemia (32 mg/kg, single i.p. 24 hours after transplantation, CDF1 mice, 30 days observation) of 52%.
